ChEMBL document CHEMBL1201862, “PubChem BioAssay data set” (2004)
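1) Cells in 96-well plates. 2) Compound, 48 h, 5 concentrations. 3) Linear interpolation between surrounding doses. 4) Unreached endpoint = highest concentration. GI50 marks 50% less growth.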 The source made the active and inactive calls. Rule as the data show it: active = GI50 up to about 1.1 µM and inactive = higher. Where a SMILES comes first, the peptide text is derived from it. Square brackets hold non-standard residues; d marks the D form. Peptide text beside a SMILES is read from it.

How the values were obtained:
Assay in all cases: DTP human tumour cell line panel, 48 h
A498 = tested on: A498
COLO 205 = tested on: COLO 205
HCC 2998 = tested on: HCC 2998
HOP-62 = tested on: HOP-62
IGROV-1 = tested on: IGROV-1
MCF7 = tested on: MCF7
MOLT-4 = tested on: MOLT-4
NCI-H23 = tested on: NCI-H23
NCI-H460 = tested on: NCI-H460
SF-295 = tested on: SF-295
SK-MEL-28 = tested on: SK-MEL-28
SK-MEL-2 = tested on: SK-MEL-2
SK-MEL-5 = tested on: SK-MEL-5
SK-OV-3 = tested on: SK-OV-3
SNB-19 = tested on: SNB-19
SW-620 = tested on: SW-620
U-251 = tested on: U-251
XF498 = tested on: XF498
RPMI-8226 = tested on: RPMI-8226
SR = tested on: SR

| SMILES | GI50 (A498) | GI50 (COLO 205) | GI50 (HCC 2998) | GI50 (HOP-62) | GI50 (IGROV-1) | GI50 (MCF7) | GI50 (MOLT-4) | GI50 (NCI-H23) | GI50 (NCI-H460) | GI50 (SF-295) | GI50 (SK-MEL-28) | GI50 (SK-MEL-2) | GI50 (SK-MEL-5) | GI50 (SK-OV-3) | GI50 (SNB-19) | GI50 (SW-620) | GI50 (U-251) | GI50 (XF498) | GI50 (RPMI-8226) | GI50 (SR) |
| --- | --- | --- | --- | --- | --- | --- | --- | --- | --- | --- | --- | --- | --- | --- | --- | --- | --- | --- | --- | --- |
| CN(C)c1cccc(OC(=O)NCCCl)c1 | > 100 µM (inactive) | > 100 µM (inactive) | > 100 µM (inactive) | > 100 µM (inactive) | > 100 µM (inactive) | > 100 µM (inactive) | > 100 µM (inactive) | > 100 µM (inactive) | > 100 µM (inactive) | > 100 µM (inactive) | > 100 µM (inactive) | > 100 µM (inactive) | > 100 µM (inactive) | > 100 µM (inactive) | > 100 µM (inactive) | > 100 µM (inactive) | > 100 µM (inactive) | > 100 µM (inactive) | – | – |
| O=C1CCc2cc3c(cc21)CC1(Cc2cc4c(cc2C1)CCCC4)C3 | 61.5 µM (inactive) | 33 µM (inactive) | 69.8 µM (inactive) | 83.2 µM (inactive) | 97.5 µM (inactive) | 44.5 µM (inactive) | > 100 µM (inactive) | > 100 µM (inactive) | 41.4 µM (inactive) | 33.9 µM (inactive) | > 100 µM (inactive) | > 100 µM (inactive) | 24.6 µM (inactive) | 79.4 µM (inactive) | 45.1 µM (inactive) | 29.1 µM (inactive) | 45.9 µM (inactive) | – | > 100 µM (inactive) | 5.52 µM (inactive) |
| O=C(CCN1CCOCC1)C(=Cc1ccccc1)C(=O)CCN1CCOCC1 | 17.3 µM (inactive) | 2.51 µM (inactive) | 13.7 µM (inactive) | 21.2 µM (inactive) | 6.78 µM (inactive) | 3.19 µM (inactive) | 1.32 µM (inactive) | 2.3 µM (inactive) | 12.8 µM (inactive) | 15.6 µM (inactive) | 2.38 µM (inactive) | 8.34 µM (inactive) | 7.08 µM (inactive) | 16.6 µM (inactive) | 14.9 µM (inactive) | 1.92 µM (inactive) | 14.1 µM (inactive) | 4.29 µM (inactive) | 1.04 µM (active) | – |
| O=Cc1cc([N+](=O)[O-])no1 | > 100 µM (inactive) | 36 µM (inactive) | 35.2 µM (inactive) | 38.1 µM (inactive) | 59 µM (inactive) | 22 µM (inactive) | 18.7 µM (inactive) | 33.8 µM (inactive) | 44.9 µM (inactive) | 32.5 µM (inactive) | > 100 µM (inactive) | 24.4 µM (inactive) | 20 µM (inactive) | > 100 µM (inactive) | 92.9 µM (inactive) | 14.8 µM (inactive) | 53.3 µM (inactive) | – | 16.9 µM (inactive) | 31.4 µM (inactive) |
| CN(/N=N/c1[nH]cnc1C(N)=O)C1CCCCC1 | > 100 µM (inactive) | > 100 µM (inactive) | > 100 µM (inactive) | > 100 µM (inactive) | > 100 µM (inactive) | – | 49.1 µM (inactive) | > 100 µM (inactive) | > 100 µM (inactive) | 86.7 µM (inactive) | > 100 µM (inactive) | 27.1 µM (inactive) | > 100 µM (inactive) | 48.2 µM (inactive) | > 100 µM (inactive) | 69 µM (inactive) | > 100 µM (inactive) | 75.7 µM (inactive) | 52.6 µM (inactive) | 30.7 µM (inactive) |
| COC(=O)Cc1c(C2C(CC(=O)OC)c3ccccc3N2C2OC(CO)C(O)C(O)C2O)[nH]c2ccccc12 (stereo unspecified) | > 100 µM (inactive) | > 100 µM (inactive) | > 100 µM (inactive) | > 100 µM (inactive) | > 100 µM (inactive) | – | > 100 µM (inactive) | > 100 µM (inactive) | > 100 µM (inactive) | > 100 µM (inactive) | > 100 µM (inactive) | > 100 µM (inactive) | > 100 µM (inactive) | > 100 µM (inactive) | > 100 µM (inactive) | > 100 µM (inactive) | > 100 µM (inactive) | – | > 100 µM (inactive) | > 100 µM (inactive) |
| Clc1ccc(/N=c2\oc3ccccc3cc2-c2nc3ccccc3[nH]2)c(Cl)c1 | – | – | – | 24.3 µM (inactive) | > 100 µM (inactive) | – | > 100 µM (inactive) | 78.5 µM (inactive) | – | > 100 µM (inactive) | – | – | – | 49.9 µM (inactive) | > 100 µM (inactive) | > 100 µM (inactive) | – | – | > 100 µM (inactive) | > 100 µM (inactive) |
| O=C(O)c1cc2c(ncc3c(=O)n(-c4ccccc4)[nH]c32)s1 | – | > 100 µM (inactive) | > 100 µM (inactive) | > 100 µM (inactive) | > 100 µM (inactive) | – | > 100 µM (inactive) | > 100 µM (inactive) | > 100 µM (inactive) | – | > 100 µM (inactive) | > 100 µM (inactive) | – | > 100 µM (inactive) | > 10 µM (inactive) | > 100 µM (inactive) | > 100 µM (inactive) | > 100 µM (inactive) | > 100 µM (inactive) | > 100 µM (inactive) |
| CC(C)C[C@H](NC(=O)[C@H](CC(C)C)NC(=O)[C@@H](Cc1c[nH]c2ccccc12)NC(=O)[C@H](Cc1ccccc1)NC(=O)[C@@H](Cc1c[nH]c2ccccc12)NC(=O)[C@H](CCC(N)=O)NC(=O)[C@@H](CCC(N)=O)NC(=O)[C@@H]1CCCN1C(=O)[C@@H](CCCCN)NC(=O)[C@H]1CCCN1C(=O)[C@H](N)CCCN=C(N)N)C(N)=O (H-[dR][dP][dK]P[dQ]Q[dW]F[dW]LL-NH2) | 32.3 µM (inactive) | > 100 µM (inactive) | > 100 µM (inactive) | > 100 µM (inactive) | > 100 µM (inactive) | > 100 µM (inactive) | > 27.4 µM (inactive) | > 100 µM (inactive) | 64.7 µM (inactive) | 63.5 µM (inactive) | > 100 µM (inactive) | > 100 µM (inactive) | > 100 µM (inactive) | > 100 µM (inactive) | 44.9 µM (inactive) | > 100 µM (inactive) | > 55 µM (inactive) | > 100 µM (inactive) | > 100 µM (inactive) | – |
| CC1NC(=O)CNC(=O)CNC(=O)C(Cc2ccc(O)cc2)NC(=O)C(C(C)C)NC(=O)C(C)NC1=O (stereo unspecified) (cyclo(GGAAVY); configuration not given here) | > 100 µM (inactive) | > 100 µM (inactive) | > 100 µM (inactive) | > 100 µM (inactive) | > 100 µM (inactive) | > 100 µM (inactive) | > 100 µM (inactive) | > 100 µM (inactive) | > 100 µM (inactive) | > 100 µM (inactive) | > 100 µM (inactive) | > 100 µM (inactive) | > 100 µM (inactive) | > 100 µM (inactive) | > 100 µM (inactive) | > 100 µM (inactive) | > 100 µM (inactive) | > 100 µM (inactive) | > 100 µM (inactive) | – |
